In patent US20100009970A1, “COMPOSITIONS AND METHODS FOR TREATMENT OF VIRAL DISEASES” (Combinatorx (Singapore) Pte. Ltd., priority 2008, published 2010):
Where two headings read alike, the source gives them in different places.

Tests used:
in vitro = details: human
[1] = system: Huh7 cells expressing a subgenomic RNA replicon of Con1 (genotype 1b) sequence origin; assay: microbe, parasite or virus in culture; details: Hepatitis C virus
[2] = Huh-7, read-out: IC50 (uM) [SG]
[3] = Huh-7, read-out: Max Effect@CC30 (inhibition)
[4] = GETYPE1B, Huh-7, 72 h, read-out: Max Effect @CC30 (inhibition)

CN[C@H]1CC[C@@H](c2ccc(Cl)c(Cl)c2)c2ccc(NC(=O)c3ccccc3)cc21 [Sertraline A-Ring Reverse Benzamide, N-((5S,8S)-5-(3,4-dichlorophenyl)-8-(methylamino)-5,6,7,8-tetrahydronaphthalen-2-yl)benzamide]
CC50 (in vitro; CC50 (uM)): 3.67 µM
CC50 (in vitro; CC50 (uM) [SG]): 3.67 µM
IC50 ([1]; Huh-7): 2.94 µM
IC90 ([1]; Huh-7): 3.88 µM
IC50 [1, 2]: 2.94 µM
Emax [1, 3]: 62.2%

CNCc1ccccc1Oc1ccc(C(F)(F)F)cc1 [Compound 39, N-methyl-1-(2-(4-(trifluoromethyl)phenoxy)phenyl)methanamine]
CC50 (in vitro; CC50 (uM) [SG]): > 50 µM
IC90 ([1]; Huh-7): 50 µM
IC50 [1, 2]: 37.5 µM
Emax [1, 3]: 91.7%

CNC(=O)c1ccc2c(c1)[C@@H](NC)CC[C@H]2c1ccc(Cl)c(Cl)c1 [Sertraline A-Ring Methyl Carboxamide, (5S,8S)-5-(3,4-dichlorophenyl)-N-methyl-8-(methylamino)-5,6,7,8-tetrahydronaphthalene-2-carboxamide]
CC50 (in vitro; CC50 (uM) [SG]): 11.1 µM
IC50 [1, 2]: 2.82 µM
Emax [1, 3]: 81.2%

CN[C@@H]1CC[C@H](c2ccc(Cl)c(Cl)c2)c2ccccc21 [1R,4R Sertraline Enantiomer, (1R,4R)-4-(3,4-dichlorophenyl)-N-methyl-1,2,3,4-tetrahydronaphthalen-1-amine]
CC50 at 72 h (in vitro; CC50 (uM)): 14.3 µM
CC50 (in vitro; CC50 (uM) [SG]): 14.6 ± 0.37 µM
Emax [1, 4]: 42%
Emax [1, 3]: 58.7 ± 23.6%

CNCc1ccccc1Oc1ccc(Br)cc1 [Compound 32]
CC50 (in vitro; CC50 (uM) [SG]): > 50 µM
IC50 [1, 2]: 31.2 µM
Emax [1, 3]: 30%

CSc1ccc(Oc2ccc(S(N)(=O)=O)cc2C=C(C)C)cc1C [Compound 86, 4-(3-methyl-4-(methylthio)phenoxy)-3-(2-methylprop-1-enyl)benzenesulfonamide]
CC50 (in vitro; CC50 (uM) [SG]): > 50 µM
IC50 [1, 2]: 34.8 µM

CSc1ccc(N2CN(C)Cc3cc(S(N)(=O)=O)ccc32)cc1C [Compound 107, 3-methyl-1-(3-methyl-4-(methylthio)phenyl)-1,2,3,4-tetrahydroquinazoline-6-sulfonamide]
CC50 (in vitro; CC50 (uM) [SG]): > 50 µM
IC90 ([1]; Huh-7): 12.8 µM
IC50 [1, 2]: 4.84 µM

CN[C@H]1CC[C@@H](c2ccc(Cl)c(Cl)c2)c2ccc(N)cc21 [Sertraline Aniline, (1S,4S)-4-(3,4-dichlorophenyl)-N1-methyl-1,2,3,4-tetrahydronaphthalene-1,7-diamine]
CC50 (in vitro; CC50 (uM)): 8.72 µM
CC50 (in vitro; CC50 (uM) [SG]): 8.72 µM
Emax [1, 4]: 50%
IC50 ([1]; Huh-7, 72 h): 6 µM
IC50 [1, 2]: 6 µM
Emax [1, 3]: 50%

CSc1ccc(Oc2ccc(S(N)(=O)=O)cc2CN2CCN(C3CCN(C)CC3)CC2)cc1C [Compound 90, 4-(3-methyl-4-(methylthio)phenoxy)-3-((4-(1-methylpiperidin-4-yl)piperazin-1-yl)methyl)benzenesulfonamide]
CC50 (in vitro; CC50 (uM) [SG]): 9.1 µM
IC90 ([1]; Huh-7): 7.48 µM
IC50 [1, 2]: 2.03 µM

CNCc1cc(S(N)(=O)=O)ccc1Oc1ccc(SC)c(OC)c1 [Compound 75, 4-(3-methoxy-4-(methylthio)phenoxy)-3-((methylamino)methyl)benzenesulfonamide]
CC50 (in vitro; CC50 (uM) [SG]): > 50 µM
IC50 [1, 2]: 11.9 µM

CSc1ccc(Oc2ccc(S(N)(=O)=O)cc2CN(C)C)cc1 [Compound 46, 3-((dimethylamino)methyl)-4-(4-(methylthio)phenoxy)benzenesulfonamide]
CC50 (in vitro; CC50 (uM)): > 50 µM
CC50 (in vitro; CC50 (uM) [SG]): > 50 µM
IC50 ([1]; Huh-7): 26.3 µM
IC90 ([1]; Huh-7): 60.9 µM
IC50 [1, 2]: 26.3 µM
Emax ([1]; Huh-7, read-out: Max Effect @CC30 (inhibition)): 83.2%
Emax [1, 3]: 83.2%

CSc1ccc(Oc2ccc(S(N)(=O)=O)cc2CN2CCCN(C)CC2)cc1C [Compound 74, 3-((4-methyl-1,4-diazepan-1-yl)methyl)-4-(3-methyl-4-(methylthio)phenoxy)benzenesulfonamide]
CC50 (in vitro; CC50 (uM) [SG]): 35.9 µM
IC90 ([1]; Huh-7): 16.1 µM
IC50 [1, 2]: 7.31 µM

CSc1ccc(Oc2ccc(S(=O)(=O)NC3CC3)cc2CN(C)C)cc1C [Compound 13, N-cyclopropyl-3-((dimethylamino)methyl)-4-(3-methyl-4-(methylthio)phenoxy)benzenesulfonamide]
CC50 (in vitro; CC50 (uM) [SG]): 41.8 µM
IC50 [1, 2]: 25.5 µM
